Data on seven molecules can be found in patent US20250282795A1, “EGFR Inhibitors in cancer treatment” (Celyn Therapeutics, Inc., priority 2022, published 2025).

Structures are written as SMILES.

What all share (type): cell-based
The subject of one data set is Ba/F3 (L858R + T790M). Description: Cellular growth inhibition assay (CellTiter-Glo), Ba/F3 (L858R+T790M). Particulars: Mus musculus, BaF3, 72 h; 3 days of incubation. The protocol:
(§1) Example E. Cellular Growth Inhibition Assay
(§2) Ba/F3(Empty vector) (Signosis), Ba/F3(Wild type) (Signosis), Ba/F3(L^858R+T790M) (Signosis), Ba/F3(A767_dupASV) (Signosis), Ba/F3(D770_N771insSVD) (Signosis), Ba/F3(H773_V774insNPH) (Signosis) were seeded at a density of 4000 cells per well in a CellBIND® 384-well Flat Clear Bottom Black Polystyrene Microplates (Coming, USA, Cat #3770) in 45 μl total volume of RPMI (PanEco, Cat #C330, Russia) with […] (HyClone, Cat #SV30160.03) and with 10 ng/ml rmIL-3 (RD systems, USA, Cat #403-ML-025) (for BaBF3(Empty vector)) and with 10 ng/ml rhEGF (ThermoFisher, USA, Cat #PHG0311L) (for BaCF3(Wild type)). 500× compounds solutions in DMSO (Sigma Cat #D2650) were prepared into Cmpnds plate (DiamondWell Plate, Axigen, Cat #P-384-120SQ-C—S) and DMSO only control was included. 1.l of 500× compounds (Cmpnds plate) was added to 49 µl of culture medium into Dilution plate (Diamond Well Plate, Axigen, Cat #P-384-120SQ-C—S), mixed and then 5 μl of 10× compounds solutions were transferred to cells followed by centrifugation at 100 g for 1 min. Final DMSO concentration was 0.2% o. After 3 days of incubation 10.l of CellTiter-Glo (Promega, CAT #G7572) were added to the cells, plate was centrifuged at 100 g for 1 min and luminescence signal was measured using Microplate Reader (CLARIOStar).
(ATP-based viability assays read luminescence as a measure of living cells.)

The next data set has as its system Ba/F3 (D770_N771insSVD). Description: Cellular growth inhibition assay (CellTiter-Glo), Ba/F3 (D770_N771insSVD). Particulars: Mus musculus, BaF3, 72 h; 3 days of incubation; read-out: Ba/F3 (D770_N771 insSVD) CC50. The protocol: as §1, §2
The test system of another data set is Ba/F3 (H773_V774insSVD). As to the kind of experiment: Cellular growth inhibition assay (CellTiter-Glo), Ba/F3 (H773_V774insSVD). Particulars: Mus musculus, BaF3, 72 h; 3 days of incubation; read-out: Ba/F3 (H773_V774 insSVD) CC50.
Data set [1] can be described thus: Cellular growth inhibition assay (CellTiter-Glo), Ba/F3 (Empty vector). Particulars: mouse, Ba/F3 cells with empty vector; Ba/F3 (Empty vector) with 10 ng/ml rmIL-3, 3 days of incubation. The protocol:
as §1, §2

Another data set has as its system Ba/F3 (EGFRwt). Description: Cellular growth inhibition assay (CellTiter-Glo), Ba/F3 (EGFRwt). Particulars: Mus musculus, BaF3, 72 h; Ba/F3 (Wild type) with 10 ng/ml rhEGF, 3 days of incubation. The protocol:
as §1, §2

In another data set the test system is Ba/F3 (A767_dupASV). Description: Cellular growth inhibition assay (CellTiter-Glo), Ba/F3 (A767_dupASV). The note with it: Mus musculus, BaF3, 72 h; 3 days of incubation; read-out: Ba/F3 (A767_dup ASV) CC50. As for the experimental part:
as §1, §2

Take `COc1c(F)cccc1Nc1c2[nH]c3c1C(=O)NCC3C/C=C/COc1cccc(c1)COc1cnccc1-2` (stereo not drawn) [Compound 29, (19E)-28-[(3-Fluoro-2-methoxyphenyl)amino]-3,22-dioxa-6,11,15-triazapentacyclo[21.3.1^10,13.0^4,9.0^12,17]octacosa-1(27),4,6,8,10(28),12,19,23,25-nonaen-14-one]: the CC50 in the data set with Ba/F3 (L858R + T790M) was 1000 to 10000 nM; in the data set with Ba/F3 (D770_N771insSVD), 100 to 1000 nM; in the data set with Ba/F3 (H773_V774insSVD) it was 1000 to 10000 nM; with Ba/F3 (EGFRwt) it was 100 to 1000 nM; in the data set with Ba/F3 (A767_dupASV), 100 to 1000 nM. In data set [1], this molecule showed a CC50 at 3 days above 10000 nM.
Consider `COc1c(F)cccc1Nc1c2[nH]c3c1C(=O)NCC3CCCCN(C(C)C)CCOc1cnccc1-2` (stereo not drawn) [Compound 159, 19-(3-fluoro-2-methoxyanilino)-8-(propan-2-yl)-6,7,8,9,10,11,12,12a,13,14-decahydro-16,18-(metheno)dipyrido[3,4-i: 4′,3′-m][1,4,11]oxadiazacyclotetradecin-15(17H)-one], for which the CC50 in the data set with Ba/F3 (L858R + T790M) was above 10000 nM; in the data set with Ba/F3 (D770_N771insSVD), 1000 to 10000 nM; with Ba/F3 (H773_V774insSVD), 1000 to 10000 nM; in the data set on Ba/F3 (A767_dupASV), 100 to 1000 nM. The CC50 at 3 days in data set [1] is above 10000 nM.
As for `COc1c(F)cccc1Nc1c2[nH]c3c1C(=O)NCC3CCCN1CC(COc3cnccc3-2)C1` (stereo not drawn) [Compound 160, 19-[(3-Fluoro-2-methoxyphenyl)amino]-7,8,10,11,12,12a,13,14-octahydro-6H-7,9-methano-16,18-methenodipyrido[3,4-b:4′,3′-f][1,5,11]oxadiazacyclotetradecin-15(17H)-one], the CC50 in the data set with Ba/F3 (L858R + T790M) was above 10000 nM; in the data set with Ba/F3 (D770_N771insSVD), 1000 to 10000 nM; in the data set on Ba/F3 (H773_V774insSVD), 1000 to 10000 nM; in the data set on Ba/F3 (A767_dupASV), 100 to 1000 nM. Besides, in data set [1], the CC50 at 3 days is above 10000 nM.
On to `COc1c(F)cccc1Nc1c2[nH]c3c1C(=O)NCC3CCCN1CCC(COc3cnccc3-2)C1` (stereo not drawn) [Compound 161, 20-(3-fluoro-2-methoxyanilino)-6,7,8,9,11,12,13,13a,14,15-decahydro-7,10-methano-17,19-(metheno)dipyrido[3,4-b: 4′,3′-f][1,5,11]oxadiazacyclopentadecin-16(18H)-one], for which the CC50 in the data set on Ba/F3 (L858R + T790M) is 1000 to 10000 nM; with Ba/F3 (D770_N771insSVD), 100 to 1000 nM; in the data set on Ba/F3 (H773_V774insSVD), 1000 to 10000 nM; in the data set with Ba/F3 (A767_dupASV), 10 to 100 nM. In data set [1], this molecule came in with a CC50 at 3 days above 10000 nM.
As for `COc1c(F)cccc1Nc1c2[nH]c3c1C(=O)NCC3CCCCCCNCCOc1cnccc1-2` (stereo not drawn) [Compound 164, 21-(3-fluoro-2-methoxyanilino)-6,7,8,9,10,11,12,13,14,14a,15,16-dodecahydro-18,20-(metheno)dipyrido[3,4-k: 4′,3′-o][1,4,13]oxadiazacyclohexadecin-17(19H)-one], the CC50 was in the range of 1000 to 10000 nM with Ba/F3 (L858R + T790M), 10 to 100 nM with Ba/F3 (D770_N771insSVD), 100 to 1000 nM in the data set on Ba/F3 (H773_V774insSVD) and 10 to 100 nM in the data set on Ba/F3 (A767_dupASV). In addition, the CC50 at 3 days in data set [1] was above 10000 nM.
In the case of `COc1c(F)cccc1Nc1c2[nH]c3c1C(=O)NCC3CCCN1CCCC(C1)Oc1cnccc1-2` (stereo not drawn) [Compound 166, 20-(3-fluoro-2-methoxyanilino)-6,7,8,9,11,12,13,13a,14,15-decahydro-6,10-methano-17,19-(metheno)dipyrido[3,4-b: 4′,3′-f][1,5,11]oxadiazacyclopentadecin-16(18H)-one], the CC50 in the data set on Ba/F3 (L858R + T790M) lay in the range of 1000 to 10000 nM; with Ba/F3 (D770_N771insSVD) it was 10 to 100 nM; with Ba/F3 (H773_V774insSVD), 100 to 1000 nM; in the data set on Ba/F3 (A767_dupASV), 1 to 10 nM. In data set [1], the CC50 at 3 days is above 10000 nM.
`COc1c(F)cccc1Nc1c2[nH]c3c1C(=O)NC[C@@H]3CCCN1CCC[C@@H]1COc1cnccc1-2` [Compound 167, (12aR)-20-[(3-fluoro-2-methoxyphenyl)amino]-1,2,12a,13,14,15,17,18,19,19a-decahydro-12H-4,6-methenodipyrido[3,4-h:4′,3′-l]pyrrolo[2,1-c][1,4,10]oxadiazacyclotridecin-3(5H)-one]: the CC50 in the data set on Ba/F3 (L858R + T790M) fell in the range of 1000 to 10000 nM; in the data set on Ba/F3 (D770_N771insSVD), 100 to 1000 nM; with Ba/F3 (H773_V774insSVD), 100 to 1000 nM; with Ba/F3 (A767_dupASV) it was 10 to 100 nM. Also, the CC50 at 3 days in data set [1] is above 10000 nM.
